Laboratory results as given in ChEMBL document CHEMBL1135372, “3-Aryl pyridone derivatives. Potent and selective kappa opioid receptor agonists” (Bioorg Med Chem Lett, 2002).
pIC50: −log10 of the molar value.

Key:
Mu-type opioid receptor = Mu-type opioid receptor (Homo sapiens, UniProt P35372); assay: Binding affinity towards mu opioid receptor by the displacement of [125I]Enkephalin
[1] = molecular target: T1, Kappa-type opioid receptor (Homo sapiens, UniProt P41145); assay: Binding affinity towards kappa opioid receptor by the displacement of [125I]-(D-Pro10)-Dynorphin A
[2] = molecular target: Delta-type opioid receptor (Homo sapiens, UniProt P41143); assay: Binding affinity towards delta opioid receptor by the displacement of [125I]deltorphin
[3] = molecular target: T1, Kappa-type opioid receptor; assay: Functional activity in HEK293 cells overexpressing the human kappa opioid receptor was determined using a radiolabeled [35S]GTP-gamma-S, assay; type: cell-based

Delta-type opioid receptor, sequence (P41143 whole entry): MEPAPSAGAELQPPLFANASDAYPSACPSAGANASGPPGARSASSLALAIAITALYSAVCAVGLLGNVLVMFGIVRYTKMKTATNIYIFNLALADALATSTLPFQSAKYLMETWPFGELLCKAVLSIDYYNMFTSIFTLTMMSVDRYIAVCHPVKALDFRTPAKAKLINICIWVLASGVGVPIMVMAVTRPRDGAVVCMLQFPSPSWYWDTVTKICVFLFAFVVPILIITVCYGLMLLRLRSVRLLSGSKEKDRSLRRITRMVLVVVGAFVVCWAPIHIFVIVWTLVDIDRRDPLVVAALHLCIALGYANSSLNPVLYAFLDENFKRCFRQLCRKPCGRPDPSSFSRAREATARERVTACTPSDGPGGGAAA
Mu-type opioid receptor, sequence (P35372 whole entry): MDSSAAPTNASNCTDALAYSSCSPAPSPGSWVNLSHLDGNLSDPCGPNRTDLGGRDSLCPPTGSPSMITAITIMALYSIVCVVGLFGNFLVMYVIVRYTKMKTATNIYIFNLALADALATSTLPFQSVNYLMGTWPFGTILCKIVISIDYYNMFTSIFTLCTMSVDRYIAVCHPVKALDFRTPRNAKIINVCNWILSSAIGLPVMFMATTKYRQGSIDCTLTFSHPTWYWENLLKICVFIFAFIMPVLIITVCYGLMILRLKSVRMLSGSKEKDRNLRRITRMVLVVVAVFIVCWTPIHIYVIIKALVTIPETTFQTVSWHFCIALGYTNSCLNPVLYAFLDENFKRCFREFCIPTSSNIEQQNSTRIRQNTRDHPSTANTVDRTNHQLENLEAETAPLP
T1 sequence (P41145 whole entry): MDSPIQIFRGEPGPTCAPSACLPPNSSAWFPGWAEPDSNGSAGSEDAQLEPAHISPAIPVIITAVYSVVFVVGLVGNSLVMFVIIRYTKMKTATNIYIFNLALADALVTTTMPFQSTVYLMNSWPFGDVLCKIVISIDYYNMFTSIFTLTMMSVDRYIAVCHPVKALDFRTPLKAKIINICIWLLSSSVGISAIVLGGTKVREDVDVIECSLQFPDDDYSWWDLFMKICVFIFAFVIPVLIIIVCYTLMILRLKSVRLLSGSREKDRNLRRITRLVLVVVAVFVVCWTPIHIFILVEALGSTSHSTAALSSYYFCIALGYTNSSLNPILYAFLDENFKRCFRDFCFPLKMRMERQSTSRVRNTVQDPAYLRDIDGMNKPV

| Compound | pIC50 (Mu-type opioid receptor) | pIC50 [1] | pIC50 [2] | ED50 [3] [nM] |
| --- | --- | --- | --- | --- |
| COc1ccc(Cl)cc1-c1cccn(C(CN2CCCC2)c2ccccc2)c1=O (centres undefined) | 5.91 | 8.82 | 5.38 |  |
| COc1ccc(-c2cccn(C(CN3CCCC3)c3ccccc3)c2=O)cc1 (centres undefined) | 5.83 | 7.31 | 5.28 |  |
| O=c1c(-c2ccc(OC(F)(F)F)cc2)cccn1C(CN1CCCC1)c1ccccc1 (centres undefined) | 5.96 | 7.47 | < 5.00 |  |
| O=c1c(-c2ccc3ccccc3c2)cccn1C(CN1CCCC1)c1ccccc1 (centres undefined) | 5.57 | 7.50 | < 5.00 |  |
| O=c1c(-c2ccc(C(F)(F)F)cc2)cccn1C(CN1CCCC1)c1ccccc1 (centres undefined) | 5.57 | 8.06 | < 5.00 | 49.4 |
| O=c1c(-c2ccc(Cl)cc2)cccn1C(CN1CCCC1)c1ccccc1 (centres undefined) | 5.32 | 8.26 | < 5.00 |  |
| O=c1c(-c2cccs2)cccn1C(CN1CCCC1)c1ccccc1 (centres undefined) |  | 5.93 |  |  |
| N#Cc1cccc(-c2cccn(C(CN3CCCC3)c3ccccc3)c2=O)c1 (centres undefined) | 5.37 | 8.28 | < 5.00 |  |
| O=c1c(-c2ccccc2C(F)(F)F)cccn1C(CN1CCCC1)c1ccccc1 (centres undefined) | 5.77 | 8.24 | < 5.00 |  |
| O=c1c(-c2cc3ccccc3o2)cccn1C(CN1CCCC1)c1ccccc1 (centres undefined) |  | 6.57 |  |  |
| COc1ccc(OC)c(-c2cccn(C(CN3CCCC3)c3ccccc3)c2=O)c1 (centres undefined) | < 5.30 | 8.46 | < 5.00 |  |
| COc1ccccc1-c1cccn(C(CN2CCCC2)c2ccccc2)c1=O (centres undefined) | 5.92 | 7.71 | < 5.00 |  |
| COc1ccc(F)cc1-c1cccn(C(CN2CCCC2)c2ccccc2)c1=O (centres undefined) | 5.46 | 8.47 | 5.36 |  |
| O=c1c(-c2cc(F)ccc2F)cccn1C(CN1CCCC1)c1ccccc1 (centres undefined) | < 5.00 | 7.65 | < 5.00 |  |
| O=c1ccc(-c2ccc(Cl)c(Cl)c2)cn1C(CN1CCCC1)c1ccccc1 (centres undefined) |  | 5.83 |  |  |
| O=c1c(-c2cccc(Cl)c2)cccn1C(CN1CCCC1)c1ccccc1 (centres undefined) | 6.51 | 8.62 | < 5.00 |  |
| O=c1c(-c2ccccc2)cccn1C(CN1CCCC1)c1ccccc1 (centres undefined) | < 5.00 | 7.25 | < 5.00 |  |
| Cc1cccc(-c2cccn(C(CN3CCCC3)c3ccccc3)c2=O)c1 (centres undefined) | < 5.00 | 7.10 | 6.19 |  |
| O=c1ccc(-c2ccc(Cl)cc2)cn1C(CN1CCCC1)c1ccccc1 (centres undefined) |  | 6.28 |  |  |
| O=c1c(-c2ccc(Cl)c(Cl)c2)cccn1C(CN1CCCC1)c1ccccc1 (centres undefined) | 5.69 | 8.64 | < 5.00 |  |
| O=c1c(-c2cccc([N+](=O)[O-])c2)cccn1C(CN1CCCC1)c1ccccc1 (centres undefined) | 5.41 | 8.66 | < 5.00 |  |
| O=c1c(-c2ccc(F)cc2)cccn1C(CN1CCCC1)c1ccccc1 (centres undefined) | < 5.00 | 7.46 | < 5.00 |  |
